Test results from patent US7384911B2, “Peptides having antimicrobial properties and compositions containing them, notably for the preservation of foodstuffs” (priority 2002, dated 2008).
Read-outs that look alike come from different tables or passages of the source. Residues, ends and D or L forms follow the SMILES beside them.

Key:
B. megaterium = experiment: Bactericidal or bacteriostatic effect, spreading on Petri dishes and counting colonies; format: cell-based; conditions: colonies counted after 24 h of incubation, Yes/No
Procedure: (§1) The bactericidal or bacteriostatic effect of the peptide was determined by spreading on Petri dishes and counting the colonies present after 24 h of incubation.

Bacillus subtilis = experiment: as above; format: cell-based; conditions: colonies counted after 24 h of incubation, Yes/No
Procedure: as §1

Escherichia coli SBS 363 = experiment: as above; format: cell-based; conditions: colonies counted after 24 h of incubation, Yes/No
Procedure: as §1

Klebsiella pneumoniae = experiment: as above; format: cell-based; conditions: colonies counted after 24 h of incubation, Yes/No
Procedure: as §1

Micrococcus luteus = experiment: as above; format: cell-based; conditions: colonies counted after 24 h of incubation, Yes/No
Procedure: as §1

Nocardia asteroides = experiment: as above; format: cell-based; conditions: colonies counted after 24 h of incubation, Yes/No
Procedure: as §1

[1] = test system: Pseudomonas aeruginosa ATCC 82118; experiment: as above; format: cell-based; conditions: colonies counted after 24 h of incubation, Yes/No
Procedure: as §1

S. haemolyticus = experiment: as above; format: cell-based; conditions: colonies counted after 24 h of incubation, Yes/No
Procedure: as §1

Salmonella typhimurium = experiment: as above; format: cell-based; conditions: colonies counted after 24 h of incubation, Yes/No
Procedure: as §1

Staphylococcus aureus = experiment: as above; format: cell-based; conditions: colonies counted after 24 h of incubation, Yes/No
Procedure: as §1

[2] = test system: V. anguillarum ATCC 19264; experiment: as above; format: cell-based; conditions: colonies counted after 24 h of incubation, Yes/No
Procedure: as §1

[3] = test system: Vibrio metshnikovii NCTC 8483; experiment: as above; format: cell-based; conditions: colonies counted after 24 h of incubation, Yes/No
Procedure: as §1

B. cereus ATCC 11778 = experiment: as above; format: cell-based, Bacillus cereus; conditions: colonies counted after 24 h of incubation, Yes/No
Procedure: as §1

S. saprophyticus = experiment: as above; format: cell-based, Staphylococcus saprophyticus; conditions: colonies counted after 24 h of incubation, Yes/No
Procedure: as §1

E. coli 1106 = experiment: as above; format: cell-based, Escherichia coli; conditions: colonies counted after 24 h of incubation, Yes/No
Procedure: as §1

Escherichia coli 1106 = format: cell-based
Procedure: (§2) Strains of microorganisms capable of growing at such pH values were selected in advance: these were Pseudomonas aeruginosa and Escherichia coli 1106 (Gram-negative bacteria). The tests of antimicrobial activity were performed in liquid medium in microtitration plates (for the detailed protocol see example 2.4 as well as Hétru and Bulet, 1997). The pH of the liquid medium used was adjusted with hydrochloric acid for each test.
(§3) Two strains of Gram-negative bacteria (Pseudomonas aeruginosa and Escherichia coli 1106) capable of growing in the range of pH values to be tested were selected. The range of pH values tested corresponded to the pH variations observed in the well preserved stomach content of the incubating king penguin (Thouzeau et al., 2003).

Pseudomonas aeruginosa = format: cell-based
Procedure: as §2, §3

Aspergillus fumigatus = experiment: Effect on growth of Aspergillus fumigatus, observation with electronic microscope; format: cell-based; conditions: incubation with 6 μM of spheniscin-2
Description: (FIG. 9A) Control growth: the aspergillar heads terminated by the spores are clearly visible (X 400). […] The effect of spheniscin-2 on A. fumigatus is consequently not of the direct fungicidal type on the spores but is manifested by a halt of growth by inhibition of the reproduction of the fungus because there is no longer formation of aspergillar heads, structures implicated in the reproduction/proliferation process of this fungus.

## CC[C@H](C)[C@@H]1NC(=O)[C@@H]2CCCN2C(=O)[C@H]([C@@H](C)CC)NC(=O)[C@H](CO)NC(=O)[C@@H]2CCCN2C(=O)[C@H](Cc2ccccc2)NC(=O)[C@H](CCCNC(=N)N)NC(=O)[C@@H]2CSSC[C@@H](C(=O)N[C@@H](CCCNC(=N)N)C(=O)N[C@@H](CCCNC(=N)N)C(=O)N[C@H](C(=O)N[C@@H](Cc3c[nH]c4ccccc34)C(=O)O)C(C)C)NC(=O)[C@@H]3CSSC[C@H](NC(=O)[C@H](CC(C)C)NC(=O)CNC(=O)[C@H](Cc4ccccc4)NC(=O)[C@@H](N)CO)C(=O)N[C@@H](CCCNC(=N)N)C(=O)N[C@@H](CC(C)C)C(=O)N[C@@H](CCCNC(=N)N)C(=O)N[C@@H](CCCNC(=N)N)C(=O)NCC(=O)N[C@@H](Cc4ccccc4)C(=O)N[C@@H](CSSC[C@H](NC(=O)[C@H](CCCNC(=N)N)NC(=O)CNC1=O)C(=O)N[C@@H](CO)C(=O)N[C@@H](CCCNC(=N)N)C(=O)N[C@@H](Cc1ccccc1)C(=O)N[C@@H](C(C)C)C(=O)N[C@@H](CCC(N)=O)C(=O)N3)C(=O)N[C@@H](C)C(=O)N[C@@H](CCCNC(=N)N)C(=O)NCC(=O)N[C@@H](CCCNC(=N)N)C(=O)N2 [spheniscin-2] (HELM PEPTIDE1{S.F.G.L.C.R.L.R.R.G.F.C.A.R.G.R.C.R.F.P.S.I.P.I.G.R.C.S.R.F.V.Q.C.C.R.R.V.W}$PEPTIDE1,PEPTIDE1,5:R3-33:R3|PEPTIDE1,PEPTIDE1,12:R3-27:R3|PEPTIDE1,PEPTIDE1,17:R3-34:R3$$$V2.0; N-terminus and C-terminus assumed)
B. megaterium
  Bactericidal effect of spheniscin-2: Yes
Bacillus subtilis
  Bactericidal effect of spheniscin-2: Yes
Escherichia coli SBS 363
  Bactericidal effect of spheniscin-2: No
Klebsiella pneumoniae
  Bactericidal effect of spheniscin-2: No
Micrococcus luteus
  Bactericidal effect of spheniscin-2: Yes
Nocardia asteroides
  Bactericidal effect of spheniscin-2: Yes
[1]
  Bactericidal effect of spheniscin-2: No
S. haemolyticus
  Bactericidal effect of spheniscin-2: Yes
Salmonella typhimurium
  Bactericidal effect of spheniscin-2: No
Staphylococcus aureus
  Bactericidal effect of spheniscin-2: Yes
[2]
  Bactericidal effect of spheniscin-2: No
[3]
  Bactericidal effect of spheniscin-2: Yes
B. cereus ATCC 11778
  Bactericidal effect of spheniscin-2: Yes
S. saprophyticus
  Bactericidal effect of spheniscin-2: No
E. coli 1106
  Bactericidal effect of spheniscin-2: Yes
Escherichia coli 1106; pH 4.2
  MIC (μM) after 48 h of incubation: 6 to 12 µM
Escherichia coli 1106; pH 5.2
  MIC (μM) after 48 h of incubation: 25 to 50 µM
Escherichia coli 1106; pH 6.1
  MIC (μM) after 48 h of incubation: 6 to 12 µM
Escherichia coli 1106; pH 7.2
  MIC (μM) after 48 h of incubation: 1.5 to 3 µM
Pseudomonas aeruginosa; pH 4.2
  MIC (μM) after 48 h of incubation: >100 µM
Pseudomonas aeruginosa; pH 7.2
  MIC (μM) after 48 h of incubation: 6 to 12 µM
Aspergillus fumigatus
  Effect on the growth of Aspergillus fumigatus (FIG. 9B): disappearance of the aspergillar heads
